Assay results taken from paper PMC5660723, “Histone Deacetylase Inhibitors Are Protective in Acute but Not in Chronic Models of Ototoxicity” (Frontiers in Cellular Neuroscience, 2017).

How the values were obtained:
[1] = Guinea pig tolerability, serum platelet, BUN and creatinine levels; assay type: in vivo, guinea pigs; details: for BUN / Cr: in mg/dL (unit assumed)
Experimental: Pigmented male guinea pigs initially weighing 200–250 g from Charles River were used in the in-vivo study. Experiments were begun 1 week after the guinea pigs arrived. To select safe doses of SAHA for protective studies, we conducted two separate sets of experiments to assess serum platelet concentrations. In the first set, pigmented guinea pigs received daily IP injections of SAHA at lower doses (LD; 2 mg/kg and 5 mg/kg) concurrent with SQ injections of 120 mg GM base/kg body weight daily for 2 weeks. In the second study, the higher doses (HD) of SAHA (15 mg/kg and 25 mg/kg) were used. The DMSO concentration was 1.1 g/kg, equal to the DMSO concentration used for the 25 mg/kg concentration of SAHA. […] We then tested the protective ability of SAHA at LD (2 mg/kg and 5 mg/kg) and at HD of SAHA (15 mg/kg and 25 mg/kg) against GM-induced hearing loss concurrent with daily SQ injections of GM (dissolved in saline) at 120 mg base/kg for 14 days. SAHA was dissolved in 100% DMSO for stock solutions of 25 mg/mL and diluted with saline immediately before IP injections. All compound solutions were filtered with syringe filters before injection. Body weights were measured before each injection. If a guinea pig lost ~5% of its body weight, an additional 3–4 mL of saline was administrated subcutaneously.
Blood was obtained by nail clipping after light anesthesia of the guinea pigs by metofane inhalation after the last drug injections. Blood cells were separated by centrifugation at 1000× g for 15 min, and sera were stored at −20°C. Blood urea nitrogen (BUN), creatinine and platelet concentrations were determined using a Kodak Ektachem700XR Clinical Chemistry Analyzer (Clinical Products Division, Eastman Kodak, Rochester, NY, USA) and analyzed by Dr. Donald Giacherio, Chemical Pathology Laboratory, University of Michigan.
While the CBA/J mouse is a well-established model for chronic KM-induced ototoxicity, we wished to ascertain whether the lack of protection by SAHA might be species-dependent. We therefore tested if SAHA treatment had protective effects against GM-induced hearing loss in guinea pigs. To find safe doses to be used in guinea pigs in vivo, we first assessed serum platelet concentrations. Guinea pigs tolerated injections of SAHA at all concentrations of 5–25 mg/kg body weight concurrent with SQ injections of 120 mg GM base/kg body weight daily for 2 weeks with normal appearing fur and steadily increasing body weight. Blood samples were collected after the last injection.

[2] = tested on: pigmented guinea pigs; experiment: Gentamicin-induced ototoxicity in guinea pigs in vivo (ABR threshold shifts, OHC counts), chronic model; details: for effect on GM-induced auditory threshold shifts: SAHA IP LD 2–5 mg/kg or HD 15–25 mg/kg with GM 120 mg base/kg daily for 2 weeks
Experimental: Pigmented male guinea pigs initially weighing 200–250 g from Charles River were used in the in-vivo study. Experiments were begun 1 week after the guinea pigs arrived. To select safe doses of SAHA for protective studies, we conducted two separate sets of experiments to assess serum platelet concentrations. […] In the second study, the higher doses (HD) of SAHA (15 mg/kg and 25 mg/kg) were used. The DMSO concentration was 1.1 g/kg, equal to the DMSO concentration used for the 25 mg/kg concentration of SAHA. […] SAHA was dissolved in 100% DMSO for stock solutions of 25 mg/mL and diluted with saline immediately before IP injections. All compound solutions were filtered with syringe filters before injection. Body weights were measured before each injection. If a guinea pig lost ~5% of its body weight, an additional 3–4 mL of saline was administrated subcutaneously.
The procedures for surface preparations of guinea pig cochlear epithelia were followed as previously described (Sha and Schacht, [1999b]). After the last auditory brain stem response (ABR) measurement, guinea pigs from the second group of experiments were deeply anesthetized in a CO2 chamber and decapitated. Cochleae were immediately removed and perfused with 4% paraformaldehyde in PBS at pH 7.4 and fixed overnight at 4°C. Micro-dissected surface preparations of the organ of Corti were permeabilized for 30 min with 0.5% Triton X-100 in PBS at room temperature (22–24°C) and stained with rhodamine phalloidin (Invitrogen) at a 1:100 dilution for 60 min at room temperature (22–24°C). After rinsing in PBS, the specimens were mounted on a slide with Gel-Mount™ (BioMeda Corp.). OHC counts were conducted with microscopy as described above for mice.
ABRs were measured 3 days before and 3 weeks after drug treatments. Animals were anesthetized with IP injections of ketamine (100 mg/kg) and xylazine (10 mg/kg) for mice or ketamine (58.8 mg/kg), xylazine (2.4 mg/kg), and acepromazine (1.2 mg/kg) for guinea pigs. Body temperature was maintained near 37°C with a heating pad. ABRs were measured at 12 and 32 kHz for guinea pigs or 8, 16, and 32 kHz for mice in a sound-isolated and electrically shielded booth (Acoustic Systems, Austin, TX, USA). Sub-dermal electrodes were inserted at the vertex of the skull, under the left ear and under the right ear (ground). […] Thresholds (the lowest stimulus level with a reproducible response) were determined by reducing the intensity in 10-dB steps and then in 5-dB steps approaching the threshold until no organized response was detected. Thresholds were evaluated based on ABR wave I. Scores were given by an expert blinded to experimental conditions between the highest stimulus level without a response and the lowest stimulus level where an organized response was observed. […]

[3] = tested on: mice; details: systemic SAHA, cited from earlier work
[4] = cited from earlier work
[5] = tested on: outer hair cells (OHCs) of p3 murine organ of Corti explants; experiment: Protection against gentamicin-induced OHC loss in murine organ of Corti explants; assay type: cell-based, CBA/J mice; details: 4.5 μM GM
Excerpt: The culture procedures have been described in detail (Chen et al., [2009]). In brief, postnatal day 3 (p3) CBA/J pups were euthanized after antisepsis using 70% ethanol. Inner ears were extracted from surrounding tissue and immersed in cold Hank’s balanced salt solution. The lateral wall tissues (stria vascularis and spiral ligament) and the auditory nerve bundle were micro-dissected from the organ of Corti. The explants were placed onto a prepared culture dish containing a 15-μL polymerized drop of rat tail collagen in 1 mL of culture medium consisting of Basal Medium Eagle, 1% serum-free supplement (Invitrogen, Carlsbad, CA, USA), 1% bovine serum albumin, 5 mg/mL glucose, and 10 U/mL penicillin G. After 4 h of incubation (37°C, 5% CO2), an additional 1 mL of medium was added to submerge the explants.
The medium was then exchanged for new medium containing a final concentration of 4.5 μM GM with or without various concentrations of the HDAC inhibitors and incubated for 72 h. The stock solutions with 95 mM of SAHA/vorinostat (Cayman Chemical, Ann Arbor, MI, USA), 100 mM of belinostat (Selleckchem, Houson, TX, USA), and 100 mM of panobinostat (Cayman Chemical), were dissolved in 100% dimethyl sulfoxide (DMSO) and stored at −20°C. GM solution was made fresh from powder in culture medium at 0.2 mM and then diluted to the final concentration for each experiment.
Explants were fixed with 4% paraformaldehyde overnight at 4°C and permeabilized for 30 min with 3% Triton X-100 in phosphate-buffered saline (PBS) at room temperature (22–24°C). The specimens were then washed three times with PBS and incubated with rhodamine-phalloidin (Invitrogen) at a 1:100 dilution for 60 min at room temperature (22–24°C). After rinsing in PBS, the specimens were mounted on a slide with Gel-Mount™ (BioMeda Corp., Foster City, CA, USA). The phalloidin-stained stereociliary bundles and circumferential F-actin rings on the cuticular plate of OHCs allowed the determination of cells that were present or missing. A clear “V” shape of stereocilia indicates the presence of OHCs. If the “V” shape is not visualized, we accept this as a damaged hair cells. Cell populations were assessed on a Leitz Orthoplan upright microscope equipped for epifluorescence, using a 50× oil-immersion objective. […] Each successive 0.19-mm field was evaluated for the absence of OHCs beginning from the apex and moving down the organ of Corti to the base. The percentage of OHC loss was calculated.
After having established the safe concentration range for the HDAC inhibitors, we explored their efficacy as protective agents against GM-induced OHC loss. […] From the assessment of safe doses and the median effective (protective) doses (ED50) of the three HDAC inhibitors, we calculated the therapeutic index (TI = TD50/ED50) to be highest (safest) for belinostat and lowest for panobinostat (for detailed values see Table 2).

[6] = GM + SAHA (HD: 15–25 mg/kg), n=5
[7] = SAHA alone (LD + HD; LD 2–5 mg/kg, HD 15–25 mg/kg), n=2

SMILES: O=C(CCCCCCC(=O)Nc1ccccc1)NO [SAHA, vorinostat]
- BUN [1, 6]: 17 ± 3.2
- Cr [1, 6]: 0.4 ± 0.08
- BUN ([1]; GM + SAHA (LD: 2–5 mg/kg), n=6): 17 ± 1.7
- Cr ([1]; GM + SAHA (LD: 2–5 mg/kg), n=6): 0.4 ± 0.06
- platelet concentration compared to GM alone ([1]; SAHA 25 mg/kg IP daily with 120 mg GM base/kg SQ for 2 weeks): significantly lower
- tolerability (fur appearance, body weight) ([1]; SAHA 5–25 mg/kg with 120 mg GM base/kg SQ daily for 2 weeks): tolerated
- BUN [1, 7]: 17.5 ± 0.7
- Cr [1, 7]: 0.5 ± 0.007
- effect on GM-induced auditory threshold shifts ([2]; 12 kHz): did not attenuate
- effect on GM-induced auditory threshold shifts ([2]; 32 kHz): did not attenuate
- effect on GM-induced loss of OHCs ([2]; SAHA IP with GM 120 mg base/kg daily for 2 weeks): did not attenuate
- effect on trauma of exposure to excessive noise ([3]; ref Chen et al., 2016): attenuated
- effect on acute effects of the ototoxic combination of KM and furosemide ([3]; ref Layman et al., 2015): attenuated
- blood-brain barrier penetration ([4]; mouse model of Huntington’s disease, ref Hockly et al., 2003): crosses the blood-brain barrier
- blood-labyrinth barrier / inner ear penetration ([4]; mouse, IP injection, ref Layman et al., 2015): crosses the blood-labyrinth barrier
- concentration at which protection from GM-induced OHC loss begins ([5]; 72 h): 0.5 µM
- concentration that completely prevents GM-induced OHC loss ([5]; 72 h): 2 µM
- ED50 (median effective protective dose) ([5]; 72 h co-incubation, p3 murine explants): 600 nM
